Read-outs that look alike come from different tables or passages of the source.
What was measured:
[1] = tested on: sciatic nerve; settings: rat, in vivo
[2] = tested on: sciatic nerve and surrounding tissues; settings: rat, in vivo
[3] = cited from earlier work
[4] = in vivo; cited from earlier work
[5] = tested on: rat sciatic nerve; settings: rat model; cited from earlier work
[6] = tested on: sciatic nerve
[7] = tested on: rat; settings: in vivo

Compound: N=C1NC(O)[C@H]2[C@@H]3OC4(O)OC(C(O)[C@@]2(N1)[C@@H]4O)[C@]3(O)CO (some centres unmarked) [TTX, Tetrodotoxin]
- blockade, % of animals [1]: 100%
- nerve blockade, % of animals [1]: 100%
- successful block, % of animals [1]: 100%
- Median inflammation score (range), Day 4 [2]: 0.5(0-1)
- Median inflammation score (range), Day 14 [2]: 0(0-0)
- Median myotoxicity score (range), Day 4 [2]: 0(0-0)
- Median myotoxicity score (range), Day 14 [2]: 0.5(0-1)^
- myotoxicity and inflammation, microscopic examination [2]: did not reveal significant myotoxicity and inflammation

Compound: COc1cc(CNC(=O)CCCC/C=C/C(C)C)ccc1O [capsaicin, 8-Methyl-N-vanillyl-trans-6-nonenamide]
- solubility ([3]; alcohol, fats and oils): freely soluble
- solubility ([3]; cold water): insoluble
- pharmacokinetic half-life [4]: approximately 24 hours
- minimum effective dose to produce nerve blockade [5]: approximately 50 μg

Compound: O=C1OC2(c3ccc(O)cc3Oc3cc(O)ccc32)c2ccccc21 [fluorescein sodium]
- fluorescence in the nerve ([6]; 0.25 mg in 0.5 mL of PBS, 1 and 4 hours): No fluorescence was observed in the nerve
- fluorescence in the nerve ([6]; 0.25 mg in 0.5 mL of PEG200, four hours after injection): none
- fluorescence in the nerve ([6]; 0.25 mg in 0.5 mL of PEG200, one hour after injection): fluorescence was observed throughout the nerve

Compound: poly(glycerol sebacate) [TgD8]
- Contralateral block (%) [7]: 0%
- Mortality (%) [7]: 0%

From patent US20250195671A1, “COVALENT ANESTHETIC-POLYMER CONJUGATES FOR PROLONGED LOCAL ANESTHESIA” (priority 2017, published 2025)
